Data: US9487554B2, “Estra-1,3,5(10),16-tetraene-3-carboxamide derivatives, processes for their preparation, pharmaceutical preparations comprising them and their use for preparing medicaments” (BAYER INTELLECTUAL PROPERTY GmbH, priority 2011, dated 2016)
“And” between values parts separate entries of the source, which are not always exact repeats. Identical values can stand only once.

Target: recombinant human AKR1C3 (Homo sapiens (Human), UniProt P42330)
Test: AKR1C3 enzyme inhibition assay (Coumberone to Coumberol fluorescence)
Type: biochemical
Settings: individual experimental determinations
Method: The AKR1C3-inhibitory activity of the substances of the present invention was measured in the AKR1C3 assay described in the paragraphs below.
Essentially, the enzyme activity is measured by quantification of the Coumberol from Coumberone (Halim, M., Yee, D. J., and Sames, D., J. AM. CHEM. SOC. 130, 14123-14128 (2008) and Yee, D. J., Balsanek, V., Bauman, D. R., Penning, T. M., and Sames, D., Proc. Natl. Acad. Sci. USA 103, 13304-13309 (2006)). In this test, the increase of the highly fluorescent Coumberol by NADPH—(nicotinamide adenine dinucleotide phosphate)-dependent reduction of the non-fluorescent Coumberone by AKR1C3 can be determined.
The enzyme used was recombinant human AKR1C3 (Aldo-keto reductase family 1 member C3) (GenBank Accession No. NM_003739). This was expressed in E. coli as GST (glutathione S transferase) fusion protein and purified by glutathione Sepharose affinity chromatography. The GST was removed by digestion with thrombin and subsequent size exclusion chromatography (Dufort, I., Rheault, P., Huang, X F., Soucy, P., and Luu-The, V., Endocrinology 140, 568-574 (1999)).
For the assay, 50 nl of a 100-fold concentrated solution of the test substance in DMSO were pipetted into a black low-volume 384-well microtiter plate (Greiner Bio-One, Frickenhausen, Germany), 2.0 μl of a solution of AKR1C3 in assay buffer [50 mM potassium phosphate buffer pH 7, 1 mM DTT, 0.0022% (w/v) Pluronic F-127, 0.01% BSA (w/v) and protease inhibitor cocktail (Complete, EDTA-free Protease Inhibitor Cocktail from Roche)] were added and the mixture was incubated for 15 min to allow pre-binding of the substances to the enzyme prior to the enzyme reaction. The enzyme reaction was then started by addition of 3 μl of a solution of NADPH (16.7 μM→final concentration in 5 μl of assay volume is 10 μM) and Coumberone (0.5 μM→final concentration in 5 μl of assay volume is 0.3 μM) in assay buffer, and the resulting mixture was incubated at 22° C. for the reaction time of 90 min. The concentration of the AKR1C3 was adapted to the respective activity of the enzyme preparation and adjusted such that the assay was carried out in the linear range. Typical concentrations were in the region of 1 nM. The reaction was stopped by addition of 5 μl of a stop solution consisting of the inhibitor EM-1404 [F. Labrie et al. U.S. Pat. No. 6,541,463, 2003] (2 μM→final concentration in […] is 1 μM). The fluorescence of the Coumberole was then measured at 520 nm (excitation at 380 nm) using a suitable measuring instrument (Pherastar from BMG Labtechnologies). The intensity of the fluorescence was used as a measure of the amount of Coumberole formed and thus of the enzyme activity of AKR1C3. The data were normalized (enzyme reaction without inhibitor=0% inhibition; all other assay components, but no enzyme=100% inhibition).

recombinant human AKR1C3, sequence (P42330 whole entry): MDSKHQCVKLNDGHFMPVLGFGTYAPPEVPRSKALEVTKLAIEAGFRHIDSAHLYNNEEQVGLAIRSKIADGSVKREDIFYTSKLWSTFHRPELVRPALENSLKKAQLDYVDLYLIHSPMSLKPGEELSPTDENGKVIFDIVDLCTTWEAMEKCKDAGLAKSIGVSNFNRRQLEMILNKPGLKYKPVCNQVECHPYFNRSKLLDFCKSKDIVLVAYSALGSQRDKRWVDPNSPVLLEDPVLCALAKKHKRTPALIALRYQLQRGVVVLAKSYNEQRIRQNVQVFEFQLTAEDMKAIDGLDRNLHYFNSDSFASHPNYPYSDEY

SMILES	IC50
C[C@]12CC[C@@H]3c4ccc(C(=O)NCC5(C(=O)O)CCOCC5)cc4CC[C@H]3[C@@H]1CC=C2c1cncc(F)c1 [Example 1, 4-[({[17-(5-Fluoropyridin-3-yl)estra-1,3,5(10),16-tetraen-3-yl]carbonyl}amino)methyl]-3,4,5,6-tetrahydro-2H-pyran-4-carboxylic acid]	1.4 nM and 1.9 nM
COc1cncc(C2=CC[C@H]3[C@@H]4CCc5cc(C(=O)NCCC(=O)O)ccc5[C@H]4CC[C@]23C)c1 [Example 15, N-{[17-(5-Methoxypyridin-3-yl)estra-1,3,5(10),16-tetraen-3-yl]carbonyl}-β-alanine]	6.9 nM and 7.2 nM
C[C@]12CC[C@@H]3c4ccc(C(=O)N5CCC[C@H]5C(=O)O)cc4CC[C@H]3[C@@H]1CC=C2c1cncc(F)c1 [Example 23, N-{[17-(5-Fluoropyridin-3-yl)estra-1,3,5(10),16-tetraen-3-yl]carbonyl}-L-proline]	1.9 nM
COc1cncc(C2=CC[C@H]3[C@@H]4CCc5cc(C(=O)NCC(C)(C)C(=O)O)ccc5[C@H]4CC[C@]23C)c1 [Example 14, 3-({[17-(5-Methoxypyridin-3-yl)estra-1,3,5(10),16-tetraen-3-yl]carbonyl}amino)-2,2-dimethylpropanoic acid]	9.8 nM and 17.9 nM
C[C@]12CC[C@@H]3c4ccc(C(=O)NCCC(=O)O)cc4CC[C@H]3[C@@H]1CC=C2c1cncnc1 [Example 17, N-{[17-(Pyrimidin-5-yl)estra-1,3,5(10),16-tetraen-3-yl]carbonyl}-β-alanine]	29.7 nM and 37.6 nM
CN(CCC(=O)O)C(=O)c1ccc2c(c1)CC[C@@H]1[C@@H]2CC[C@]2(C)C(c3cncc(C(F)(F)F)c3)=CC[C@@H]12 [Example 22, N-Methyl-N-({17-[5-(trifluoromethyl)pyridin-3-yl]estra-1,3,5(10),16-tetraen-3-yl}carbonyl)-β-alanine]	4.2 nM
COc1cncc(C2=CC[C@H]3[C@@H]4CCc5cc(C(=O)N(C)CCC(=O)O)ccc5[C@H]4CC[C@]23C)c1 [Example 16, N-{[17-(5-Methoxypyridin-3-yl)estra-1,3,5(10),16-tetraen-3-yl]carbonyl}-N-methyl-β-alanine]	4.4 nM and 6.9 nM
C[C@]12CC[C@@H]3c4ccc(C(=O)N5CCC(C(=O)O)CC5)cc4CC[C@H]3[C@@H]1CC=C2c1cncc(F)c1 [Example 6, 1-{[17-(5-Fluoropyridin-3-yl)estra-1,3,5(10),16-tetraen-3-yl]carbonyl}piperidine-4-carboxylic acid]	21.1 nM and 21 nM
CC(C)(CNC(=O)c1ccc2c(c1)CC[C@@H]1[C@@H]2CC[C@]2(C)C(c3cncnc3)=CC[C@@H]12)C(=O)O [Example 20, 2,2-Dimethyl-3-({[17-(pyrimidin-5-yl)estra-1,3,5(10),16-tetraen-3-yl]carbonyl}amino)-propanoic acid]	45.5 nM and 46.3 nM
Cc1cc(C2=CC[C@H]3[C@@H]4CCc5cc(C(=O)N(C)CCC(=O)O)ccc5[C@H]4CC[C@]23C)cnn1 [Example 28, N-Methyl-N-{[17-(6-methylpyridazin-4-yl)estra-1,3,5(10),16-tetraen-3-yl]carbonyl}-β-alanine]	0.5 nM
CN(CCC(=O)O)C(=O)c1ccc2c(c1)CC[C@@H]1[C@@H]2CC[C@]2(C)C(c3cncnc3)=CC[C@@H]12 [Example 19, N-Methyl-N-{[17-(pyrimidin-5-yl)estra-1,3,5(10),16-tetraen-3-yl]carbonyl}-β-alanine]	26.7 nM (2×) and 17.8 nM
C[C@]12C[C@H](F)[C@@H]3c4ccc(C(=O)NCCCC(=O)O)cc4CC[C@H]3[C@@H]1CC=C2c1cncc(F)c1 [Example 25, 4-({[11β-Fluoro-17-(5-fluoropyridin-3-yl)estra-1,3,5(10),16-tetraen-3-yl]carbonyl}-amino)butanoic acid]	29.1 nM and 16.8 nM
C[C@]12CC[C@@H]3c4ccc(C(=O)NCCCC(=O)O)cc4CC[C@H]3[C@@H]1CC=C2c1cncnc1 [Example 18, 4-({[17-(Pyrimidin-5-yl)estra-1,3,5(10),16-tetraen-3-yl]carbonyl}amino)butanoic acid]	23.5 nM and 31.8 nM
COc1cncc(C2=CC[C@H]3[C@@H]4CCc5cc(C(=O)NCCCC(=O)O)ccc5[C@H]4CC[C@]23C)c1 [Example 30, 4-({[17-(5-Methoxypyridin-3-yl)estra-1,3,5(10),16-tetraen-3-yl]carbonyl}amino)butanoic acid]	7.3 nM and 11.2 nM
C[C@]12CC[C@@H]3c4ccc(C(=O)NCC5(C(=O)O)CCCC5)cc4CC[C@H]3[C@@H]1CC=C2c1cncc(F)c1 [Example 4, 1-[({[17-(5-Fluoropyridin-3-yl)estra-1,3,5(10),16-tetraen-3-yl]carbonyl}amino)methyl]-cyclopentane-1-carboxylic acid]	13.9 nM and 8.9 nM
C[C@]12CC[C@@H]3c4ccc(C(=O)N5CCC[C@@H]5C(=O)O)cc4CC[C@H]3[C@@H]1CC=C2c1cncc(F)c1 [Example 24, N-{[17-(5-Fluoropyridin-3-yl)estra-1,3,5(10),16-tetraen-3-yl]carbonyl}-D-proline]	5.3 nM
CN(CCC(=O)O)C(=O)c1ccc2c(c1)CC[C@@H]1[C@@H]2CC[C@]2(C)C(c3cccnc3)=CC[C@@H]12 [Example 29, N-Methyl-N-{[17-(pyridin-3-yl)estra-1,3,5(10),16-tetraen-3-yl]carbonyl}-β-alanine]	2.5 nM
C[C@]12CC[C@@H]3c4ccc(C(=O)NCCCC(=O)O)cc4CC[C@H]3[C@@H]1CC=C2c1cncc(F)c1 [Example 8, 4-({[17-(5-Fluoropyridin-3-yl)estra-1,3,5(10),16-tetraen-3-yl]carbonyl}amino)butanoic acid]	8.5 nM and 6.8 nM
C[C@H](CC(=O)O)NC(=O)c1ccc2c(c1)CC[C@@H]1[C@@H]2CC[C@]2(C)C(c3cncc(F)c3)=CC[C@@H]12 [Example 13, (R)-3-({[17-(5-Fluoropyridin-3-yl)estra-1,3,5(10),16-tetraen-3-yl]carbonyl}amino)-butanoic acid]	0.8 nM and 1.8 nM
C[C@]12CC[C@@H]3c4ccc(C(=O)N[C@@H]5CCC[C@@H]5C(=O)O)cc4CC[C@H]3[C@@H]1CC=C2c1cncc(F)c1 (relative stereo) [Example 11, (1R*,2S*)-2-({[17-(5-Fluoropyridin-3-yl)estra-1,3,5(10),16-tetraen-3-yl]carbonyl}amino)-cyclopentane-1-carboxylic acid]	2.2 nM and 1.8 nM
CC(C)(NC(=O)c1ccc2c(c1)CC[C@@H]1[C@@H]2CC[C@]2(C)C(c3cncc(F)c3)=CC[C@@H]12)C(=O)O [Example 7, N-{[17-(5-Fluoropyridin-3-yl)estra-1,3,5(10),16-tetraen-3-yl]carbonyl}-2-methylalanine]	8.5 nM and 9.6 nM
CN(CCC(=O)O)C(=O)c1ccc2c(c1)CC[C@H]1[C@@H]3[C@@H](O)C=C(c4cncc(F)c4)[C@@]3(C)CC[C@H]21 [Example 26, N-{[17-(5-Fluoropyridin-3-yl)-15α-hydroxyestra-1,3,5(10),16-tetraen-3-yl]carbonyl}-N-methyl-β-alanine]	11 nM and 16.6 nM
